The record followed here is ChEMBL document CHEMBL5331046, “Disulfiram and dithiocarbamate analogues demonstrate promising antischistosomal effects” (Eur J Med Chem, 2022).

The test system of data set [1] is Schistosoma mansoni. Nature of the data set: Antischistosomal activity against Schistosoma mansoni couples assessed as lethality to parasites at 100 uM measured upto 72 hrs by bright field microscopy. It counts as functional, organism-based.
Data set [2] relates to Schistosoma mansoni. The data set can be described thus: Antischistosomal activity against Schistosoma mansoni couples assessed as tegument damage at 100 uM measured upto 72 hrs by bright field microscopy. Type of data set: functional, organism-based.
Data set [3] deals with Schistosoma mansoni. Nature of the data set: Antischistosomal activity against Schistosoma mansoni couples assessed as decrease in parasite motility at <25 uM measured upto 72 hrs by bright field microscopy. Type of data set: functional, organism-based.
Data set [4] relates to Schistosoma mansoni. The data set can be described thus: Antischistosomal activity against Schistosoma mansoni couples assessed as decrease in parasite vitality at 25 uM measured upto 72 hrs by bright field microscopy. It counts as functional, organism-based.
Data set [5] has as its system Schistosoma mansoni. The data set can be described thus: Antischistosomal activity against Schistosoma mansoni couples assessed as inhibition of eggs production at 25 uM measured upto 72 hrs by bright field microscopy. Type of data set: functional. On the set-up: scale not given: the % may be the effect or the level left.
The test system of data set [6] is Schistosoma mansoni. The data set can be described thus: Antischistosomal activity against Schistosoma mansoni couples assessed as reduction in pairing stability at 25 uM measured upto 72 hrs by bright field microscopy. It counts as functional. On the set-up: scale not given: the % may be the effect or the level left.
The subject of data set [7] is Schistosoma mansoni. Nature of the data set: Antischistosomal activity against Schistosoma mansoni couples assessed as decrease in parasite motility at 50 uM measured upto 72 hrs by bright field microscopy. Type of data set: functional. On the set-up: scale not given: the % may be the effect or the level left.
Data set [8] relates to Schistosoma mansoni. The data set can be described thus: Antischistosomal activity against Schistosoma mansoni couples assessed as decrease in mating stability <25 uM measured upto 72 hrs by bright field microscopy. It counts as functional, organism-based.
The subject of data set [9] is Schistosoma mansoni. The data set can be described thus: Antischistosomal activity against Schistosoma mansoni couples assessed as decrease in parasite motility at 25 uM measured upto 72 hrs by bright field microscopy. Type of data set: functional.
Data set [10] concerns Schistosoma mansoni. The data set can be described thus: Antischistosomal activity against Schistosoma mansoni couples assessed as inhibition of eggs production at <25 uM measured upto 72 hrs by bright field microscopy. It counts as functional, organism-based.
The subject of data set [11] is Schistosoma mansoni. The data set can be described thus: Antischistosomal activity against Schistosoma mansoni couples assessed as worm motility at 100 uM measured after 72 hrs by bright field microscopy. It counts as functional.
For data set [12], the system named is Schistosoma mansoni. The data set can be described thus: Antischistosomal activity against Schistosoma mansoni couples assessed as tegument damage at 10 uM measured upto 72 hrs by bright field microscopy. Type of data set: functional, organism-based.
In data set [13] the test system is Schistosoma mansoni. The data set can be described thus: Antischistosomal activity against Schistosoma mansoni couples assessed as worm motility at 100 uM treated for 72 hrs and measured at 192 hrs after drug wash-out by bright field microscopy. Type of data set: functional.
In data set [14] the test system is Schistosoma mansoni. Nature of the data set: Antischistosomal activity against Schistosoma mansoni couples assessed as worm motility at 50 uM measured after 72 hrs by bright field microscopy. It counts as functional.
The test system of data set [15] is Schistosoma mansoni. Nature of the data set: Antischistosomal activity against Schistosoma mansoni couples assessed as worm motility at 100 uM treated for 72 hrs and measured at 144 hrs after drug wash-out by bright field microscopy. It counts as functional.
In another data set the test system is LS174T. The data set can be described thus: Cytotoxicity against human LS174T cells assessed as reduction in cell viability at 100 uM by WST-1 assay. It counts as toxicity, cell-based.
Data set [16] has as its system Schistosoma mansoni. Nature of the data set: Antischistosomal activity against Schistosoma mansoni couples assessed as worm motility at 50 uM treated for 72 hrs and measured at 144 hrs after drug wash-out by bright field microscopy. It counts as functional.
In another data set the test system is HepG2. Nature of the data set: Cytotoxicity against human HepG2 cells assessed as reduction in cell vaibility at 100 uM by WST-1 assay. As to conditions: hepg2, 100 µM. It counts as toxicity, cell-based. (In general: Tetrazolium dyes change colour on reduction, which living cells bring about.)
The subject of data set [17] is Schistosoma mansoni. Nature of the data set: Antischistosomal activity against Schistosoma mansoni couples assessed as decrease in parasite motility at 15 uM measured upto 72 hrs by bright field microscopy. On the set-up: scale not given: the % may be the effect or the level left. Type of data set: functional.
The test system of data set [18] is Schistosoma mansoni. Nature of the data set: Antischistosomal activity against Schistosoma mansoni couples assessed as gut dilatations at 10 uM measured upto 72 hrs by bright field microscopy. It counts as functional, organism-based.
For data set [19], the system named is Schistosoma mansoni. The data set can be described thus: Antischistosomal activity against Schistosoma mansoni couples assessed as worm motility at 25 uM treated for 72 hrs and measured at 192 hrs after drug wash-out by bright field microscopy. Type of data set: functional.
The test system of data set [20] is Schistosoma mansoni. The data set can be described thus: Antischistosomal activity against Schistosoma mansoni couples assessed as reduction in worm motility measured up to 72 hrs by bright field microscopy. It counts as functional, organism-based.
Data set [21] deals with Schistosoma mansoni. The data set can be described thus: Antischistosomal activity against Schistosoma mansoni couples assessed as loss of internal structures at <=10 uM measured upto 72 hrs by bright field microscopy. It counts as functional, organism-based.
For data set [22], the system named is Schistosoma mansoni. Nature of the data set: Antischistosomal activity against Schistosoma mansoni couples assessed as loss of internal structures at 10 uM measured upto 72 hrs by bright field microscopy. Type of data set: functional, organism-based.
Data set [23] deals with Schistosoma mansoni. Nature of the data set: Antischistosomal activity against Schistosoma mansoni couples assessed as decrease in pairing stability at 15 uM measured upto 72 hrs by bright field microscopy. Also on record: scale not given: the % may be the effect or the level left. It counts as functional.
Data set [24] relates to Schistosoma mansoni. The data set can be described thus: Antischistosomal activity against Schistosoma mansoni couples assessed as worm motility at 50 uM treated for 72 hrs and measured at 192 hrs after drug wash-out by bright field microscopy. Type of data set: functional.
The subject of data set [25] is Schistosoma mansoni. Nature of the data set: Antischistosomal activity against Schistosoma mansoni couples assessed as worm motility at 25 uM measured after 72 hrs by bright field microscopy. It counts as functional.
For data set [26], the system named is Schistosoma mansoni. Nature of the data set: Antischistosomal activity against Schistosoma mansoni couples assessed as tegument damage at <=10 uM measured upto 72 hrs by bright field microscopy. Type of data set: functional, organism-based.
Data set [27] deals with Schistosoma mansoni. Nature of the data set: Antischistosomal activity against Schistosoma mansoni couples assessed as reduction in parasite motility at <=10 uM measured upto 72 hrs by bright field microscopy. It counts as functional. On the set-up: scale not given: the % may be the effect or the level left. As to conditions: up to 10 µM.
Data set [28] relates to Schistosoma mansoni. Nature of the data set: Antischistosomal activity against Schistosoma mansoni couples assessed as inhibition of eggs production at 15 uM measured upto 72 hrs by bright field microscopy. It counts as functional. On the set-up: scale not given: the % may be the effect or the level left.
For data set [29], the system named is Schistosoma mansoni. Nature of the data set: Antischistosomal activity against Schistosoma mansoni couples assessed as induction of phenotypes at 10 uM measured upto 72 hrs by bright field microscopy. It counts as functional, organism-based.
For data set [30], the system named is Schistosoma mansoni. The data set can be described thus: Antischistosomal activity against Schistosoma mansoni couples assessed as decrease in parasite motility at 10 uM measured upto 72 hrs by bright field microscopy. Type of data set: functional, organism-based.
Data set [31] has as its system Schistosoma mansoni. Nature of the data set: Antischistosomal activity against Schistosoma mansoni couples assessed as gut dilatations at <=10 uM measured upto 72 hrs by bright field microscopy. Type of data set: functional, organism-based.
Data set [32] concerns Schistosoma mansoni. The data set can be described thus: Antischistosomal activity against Schistosoma mansoni couples assessed as reduction in pairing stability measured up to 72 hrs by bright field microscopy. Type of data set: functional, organism-based.
Data set [33] deals with Schistosoma mansoni. The data set can be described thus: Antischistosomal activity against Schistosoma mansoni couples assessed as decrease in parasite vitality at 15 uM measured upto 72 hrs by bright field microscopy. It counts as functional. On the set-up: scale not given: the % may be the effect or the level left.
Data set [34] deals with Schistosoma mansoni. Nature of the data set: Antischistosomal activity against Schistosoma mansoni couples assessed as worm motility at 25 uM treated for 72 hrs and measured at 144 hrs after drug wash-out by bright field microscopy. Type of data set: functional.
Data set [35] deals with Schistosoma mansoni. The data set can be described thus: Antischistosomal activity against Schistosoma mansoni couples assessed as gut dilations at 25 uM measured upto 72 hrs by bright field microscopy. Type of data set: functional, organism-based.
Data set [36] deals with Schistosoma mansoni. The data set can be described thus: Antischistosomal activity against Schistosoma mansoni couples assessed as couple separation at 25 uM measured upto 72 hrs by bright field microscopy. It counts as functional, organism-based.
For data set [37], the system named is Schistosoma mansoni. The data set can be described thus: Antischistosomal activity against Schistosoma mansoni couples at 100 uM measured upto 72 hrs by bright field microscopy. Type of data set: functional, organism-based.
Data set [38] has as its system Schistosoma mansoni. The data set can be described thus: Antischistosomal activity against Schistosoma mansoni couples assessed as tissue structural changes at 25 uM measured upto 72 hrs by bright field microscopy. It counts as functional, organism-based.
In data set [39] the test system is Schistosoma mansoni. Nature of the data set: Antischistosomal activity against Schistosoma mansoni infected in mouse assessed as decrease in granuloma formation. Also on record: scale not given: the % may be the effect or the level left. Type of data set: functional.
In data set [40] the test system is Schistosoma mansoni. Nature of the data set: Antischistosomal activity against Schistosoma mansoni couples assessed as reduction in pairing stability at 25 to 100 uM treated for 72 hrs and measured at 144 to 192 hrs after drug wash-out by bright field microscopy. As to conditions: dose 25-100 µM. It counts as functional, organism-based.
For data set [41], the system named is Schistosoma mansoni. The data set can be described thus: Antischistosomal activity against Schistosoma mansoni infected in mouse assessed as mouse mortality. It counts as functional.

Calls of active or inactive are those of the source. The rule behind the calls is not given here.

For the compound `CCN(CC)C(=S)SCc1cc([N+](=O)[O-])ccc1O`, the result in the data set on Schistosoma mansoni [1] and in the data set with Schistosoma mansoni [2] was Active. Moreover, the result with Schistosoma mansoni [3], in the data set with Schistosoma mansoni [4], in the data set with Schistosoma mansoni [8], with Schistosoma mansoni [9] and in the data set on Schistosoma mansoni [10] was inactive. Also, the Activity entry was “>=90%” in the data set with Schistosoma mansoni [5], “>=90%” in the data set on Schistosoma mansoni [6] and >60% in the data set with Schistosoma mansoni [7].

On to `CS(=O)(=O)N1CCN(C(=S)SCc2ccc([N+](=O)[O-])cc2)CC1`, for which the Activity in the data set with Schistosoma mansoni [11] was 31%; in the data set on Schistosoma mansoni [13], 24%; with Schistosoma mansoni [14] it was 31%; with Schistosoma mansoni [15], 24%; in the data set with LS174T it was “Non-Toxic”; in the data set with Schistosoma mansoni [16], 27%. Besides, the Activity result in the data set on HepG2 is reported as “Non-Toxic”; in the data set on Schistosoma mansoni [17] it was 50%; with Schistosoma mansoni [19] it was 35%; with Schistosoma mansoni [23] it was 20%; in the data set with Schistosoma mansoni [24], 28%; in the data set with Schistosoma mansoni [25], 35%. Besides, the Activity with Schistosoma mansoni [27] is 50%; in the data set with Schistosoma mansoni [28], 40%; in the data set with Schistosoma mansoni [33], 90%; in the data set on Schistosoma mansoni [34], 36%. Also, the result in the data set on Schistosoma mansoni [12], in the data set on Schistosoma mansoni [18], in the data set with Schistosoma mansoni [22], with Schistosoma mansoni [29] and with Schistosoma mansoni [30] was Active. Further, the EC50 with Schistosoma mansoni [20] worked out at 9.6 µM; in the data set with Schistosoma mansoni [32] it was 9.2 µM. Further, the outcome in the data set on Schistosoma mansoni [21], with Schistosoma mansoni [26] and with Schistosoma mansoni [31] was inactive.

With `CN(C)CCN1CCN(C(=S)SCc2ccc([N+](=O)[O-])cc2)CC1`, the result with Schistosoma mansoni [4], in the data set on Schistosoma mansoni [35], in the data set on Schistosoma mansoni [5], with Schistosoma mansoni [36], with Schistosoma mansoni [37] and in the data set with Schistosoma mansoni [38] was Active. Moreover, the Activity entry is recorded as “Toxic” in the data set with LS174T, “Toxic” in the data set on HepG2 and 55% in the data set with Schistosoma mansoni [9].

Take `CCN(CC)C(=S)SSC(=S)N(CC)CC` [DISULFIRAM]: the Activity in the data set with Schistosoma mansoni [11] amounted to 56%; with Schistosoma mansoni [13] it was 76%; in the data set with Schistosoma mansoni [14], 62%; in the data set on Schistosoma mansoni [15], 71%; in the data set on Schistosoma mansoni [16] it was 75%; in the data set with Schistosoma mansoni [39], 80%. In addition, the Activity came out at 67% in the data set with Schistosoma mansoni [19]; 84% with Schistosoma mansoni [24]; 69% with Schistosoma mansoni [25]; 60% with Schistosoma mansoni [41]; 73% in the data set with Schistosoma mansoni [34]. Moreover, the result in the data set with Schistosoma mansoni [40] was inactive.

The term EC50 denotes the concentration giving half of the maximal effect.
